Assay results from patent publication US9975869B2 (Sphaera Pharma Pvt. Ltd., priority 2013, dated 2018).

Each molecule was assayed on AMPK (assay: AMPK activation potential, cell based ELISA (Phospho-AMPKα Thr172) in Hep G2 cells). Details: 10 nm concentration; Hep G2 liver cells; % activity with DMSO control as 100%; 30 min incubation for Epicatechin analogs.
Description: Testing of Compounds for Their AMPK Activation Potential
AMPK activation potential of the compounds was evaluated using cell based ELISA. Hepatoma (Hep G2) liver cells were maintained in a T 75 culture flask-containing 25 mM DMEM+10% fetal calf serum. The cells were maintained in a T 75 culture flask-containing medium (DMEM+10% fetal calf serum). On reaching a confluence of 70 to 80%, the cells were seeded in a 96 well plate at a density of 40,000 cells per well in 25 mM DMEM+10% FCS medium. The plates were then incubated at 37° C. with 5% CO2 for 24 hours. Various concentrations of drugs were prepared in DMSO and diluted to required concentration with the medium and incubated at 37° C. with 5% CO2 for 30 min and 1 h for Epicatechin analogs and 11-BHP analogs respectively. Metformin was used as positive control. Cells were fixed with 4% formaldehyde for 30 minutes at room temperature and washed three times with PBS containing 0.1% Triton X-100. Endogenous peroxidase was quenched with 1% H2O2 in PBS-T (0.1% Tween 20) for 30 minutes and washed three times in PBS-T. Cells were blocked with 1% BSA in PBS-T for 1 hour. The cells were incubated with 1:1000 dilution primary antibody (Phospho-AMPKα (Thr172) Rabbit mAb, Cell Signaling in PBS-T containing 5% BSA at 4° C. overnight. The cells were then washed three times with PBS-T for 5 minutes and incubated with 1:1000 dilution secondary antibody (Anti-rabbit IgG, HRP-linked Antibody, Cell Signaling) in PBS-T with 1% BSA for 1 hour at RT. Cells were washed three times with PBS-T for 5 minutes The cells were incubated with 100 μl TMB substrate solution for 30 minutes and the reaction was stopped with 100 μl of 2N H2SO4. Then the plate was read at 450 nm using ELISA plate reader and absorbance recorded. % activity was calculated using DMSO control as 100%. All compounds of the present invention, as exemplified and encompassed are found to be active.

First: COC(=O)Oc1cc(OC(=O)OC)c2c(c1)O[C@H](c1ccc(O)c(O)c1)[C@H](O)C2 [Compound 1058, (2R,3R)-2-(3,4-dihydroxyphenyl)-3-hydroxychromane-5,7-diyl dimethyl bis(carbonate)]
Second: CCCCCCCC(=O)Oc1cc(O)cc2c1C[C@@H](O)[C@@H](c1ccc(O)c(O)c1)O2 [Compound 1064, (2R,3R)-2-(3,4-dihydroxyphenyl)-3,7-dihydroxychroman-5-yl octanoate]
The “% pAMPK(at 10 nm)” value of the first is higher: 117% for the first, 110% for the second.

First: O=C(NCc1ccccc1)Oc1ccc([C@H]2Oc3cc(O)cc(O)c3C[C@H]2O)cc1OC(=O)NCc1ccccc1 [Compound 1059, 4-((2R,3R)-3,5,7-trihydroxychroman-2-yl)-1,2-phenylene bis(benzylcarbamate)]
Second: COC(=O)Oc1cc(OC(=O)OC)c2c(c1)O[C@H](c1ccc(OC(=O)OCc3ccccc3)c(OC(=O)OCc3ccccc3)c1)[C@H](O)C2 [Compound 1066, dibenzyl (4-((2R,3R)-3-hydroxy-5,7-bis((methoxycarbonyl)oxy)chroman-2-yl)-1,2-phenylene) bis(carbonate)]
The “% pAMPK(at 10 nm)” value of the first is higher: 144% for the first, 139% for the second.

First: CC(C)COC(=O)Oc1cc(OC(=O)OCC(C)C)c2c(c1)O[C@H](c1ccc(OC(=O)OCc3ccccc3)c(OC(=O)OCc3ccccc3)c1)[C@H](O)C2 [Compound 1060, dibenzyl (4-((2R,3R)-3-hydroxy-5,7-bis((isobutoxycarbonyl)oxy)chroman-2-yl)-1,2-phenylene) bis(carbonate)]
Second: CC(C)(C)COC(=O)Oc1ccc([C@H]2Oc3cc(O)cc(O)c3C[C@H]2O)cc1OC(=O)OCC(C)(C)C [Compound 1072, dineopentyl (4-((2R,3R)-3,5,7-trihydroxychroman-2-yl)-1,2-phenylene) bis(carbonate)]
The “% pAMPK(at 10 nm)” value of the first is higher: 110% for the first, 99% for the second.

Compared with CCCO[C@@H]1Cc2ccc(O)cc2O[C@@H]1c1cccc(OC)c1 [Compound 1068, (2R,3R)-2-(3-methoxyphenyl)-3-propoxychroman-7-ol], Cc1ccc([C@H]2Oc3cc(O)ccc3C[C@H]2O)cc1O [Compound 1069, (2R,3R)-2-(3-hydroxy-4-methylphenyl)chromane-3,7-diol] is higher in “% pAMPK(at 10 nm)” value: 90% for the first, 110% for the second.

Compared with COc1ccc([C@H]2Oc3cc(OC)ccc3C[C@H]2O)cc1 [Compound 1070, (2R,3R)-7-methoxy-2-(4-methoxyphenyl)chroman-3-ol], CC(C)(C)OC(=O)O[C@@H]1Cc2c(O)cc(O)cc2O[C@@H]1c1ccc(O)c(O)c1 [Compound 1073, tert-butyl ((2R,3R)-2-(3,4-dihydroxyphenyl)-5,7-dihydroxychroman-3-yl) carbonate] is lower in “% pAMPK(at 10 nm)” value: 126% for the first, 109% for the second.

O=C(O[C@@H]1Cc2c(O)cc(O)cc2O[C@@H]1c1ccc(O)c(O)c1)c1cccnc1 [Compound 1071, (2R,3R)-2-(3,4-dihydroxyphenyl)-5,7-dihydroxychroman-3-yl nicotinate] was tested, and the “% pAMPK(at 10 nm)” value was 102%.
